# B1: PngR (Pseudo-nitzschia granii rhodopsin, xanthorhodopsin-like light-driven proton pump) (Pseudo-nitzschia granii) (protein)
# chain: MVTANQFTIVYDVLSFSLATMMATTIFLWMRVPSVHEKYKSALIISGLVTFIAAYHYLRIFNSWTEAYEWTAEGELSATASPFNDAYRYMDWLLTVPLLLIEIILVMKLPADESRSKATTLGIASAAMIAIGYPGELAMSDDSLGTRWVYWIGAMLPFLYIVQTLLVGLNDATQSEADPAIRDLIKGVQWWTVISWCTYPVVYVFPMMGITGTNAIVGIQLGYSVSDIISKCGVGLMIYQITIAKSYALKKGNEETPLYG
# How the values were obtained:
# PngR = molecular target: T1, PngR (Pseudo-nitzschia granii, UniProt A0A0A7RP02); test: HPLC of retinal oxime isomers from purified holoprotein; absorption spectrum; type: binding; conditions: covalent; chromophore; light- and dark-adapted samples; 50 mM Tris-HCl pH 7.0, 1 M NaCl, 0.05% DDM
# T1 construct: gene RHO; full length, E. coli codon-optimised, C-terminal His6 tag (pET21a NdeI-XhoI), expressed in E. coli BL21(DE3) with all-trans retinal, purified in DDM
# Asp91 (position 91, …) = test: UV-vis; conditions: room temperature (approximately 25°C), 1 M NaCl, Buffer A: 50 mM Tris-HCl, 0.05% (w/v) DDM, pH adjusted by addition of HCl, Dark/ground (unphotolysed) state with all-trans retinal, measured under room light, DDM-solubilised, folded (reversibility checked)
Molecule,HPLC of retinal oxime isomers from purified holoprotein; absorption spectrum (PngR),"pKa (Asp91 (position 91, …))"
CC1=C(/C=C/C(C)=C/C=C/C(C)=C/C=O)C(C)(C)CCC1 [all-trans retinal],"In light- and dark-adapted samples, the isomeric state of retinal was predominantly all-trans",–
B1,–,approximately 5.0

# Source: paper PMC10308239, “Light-driven Proton Pumps as a Potential Regulator for Carbon Fixation in Marine Diatoms” (Microbes and Environments, 2023)
